Measured values as given in US12083084B2, “Method for enhancing energy production and metabolism in cells” (REPLICON HEALTH OY, priority 2013, dated 2024).

Columns and labels:
400 m running experiment = type: in vivo, human
Procedure: Two healthy male volunteers S1 and S3 from Example 2.1 participated in 400 m running experiment with 4 day administration of DGAcs and without it. The experiments were done at 2-3 pm in the afternoon. In DGA experiment additional dose of DGAcs (5 mg/kg) was taken before lunch at 11 am, and lunch was eaten at 12 am. […] The length of the 400 m exercise at full speed was too much especially for S1. […] This difference was striking especially for S3 and can be as a result in decreased acidosis.

[1] = Blood pressure (hypertension) in study subjects; type: in vivo, human
Procedure: FIG. 12 depicts that hypertension was measured in two study subjects out of eight (subject 4 and 5). Subject 5 was the only person with clearly elevated blood pressure. (For other study subjects 1-3 and 6-8 blood pressures were at normal level.) Subject 5 blood pressure was first observed without any treatment for 6 days (from 20 of Jan. to 26 of Jan. 2013). After that subject 5 received twice a day 4 mg/kg of DGA mixed to water for 10 days. […] Subject 4 received 1×4 mg/k/day of DGA for 3 weeks.
FIG. 12a: Hypertension, subject 5 (averages of three measurements. DGA dosing started on 26th of January and ended on 3rd of February. Dose 2×4 mg/kg/day).
FIG. 12b: Hypertension, subject 4 (averages of three measurements. Subject 4 received 1×4 mg/kg/day of DGA for 3 weeks).

peripheral leukocytes = test: Gene expression from in vivo blood samples (TRAC); set-up: species or system human; settings: for AOX1 gene expression, Change % / CYP1A2 gene expression, Change % / CYP2B6 gene expression, Change % / CYP2C9 gene expression, Change % / CYP3A4 gene expression, Change % / G6PD gene expression, Change % / GPD2 gene expression, Change % / GRHPR gene expression, Change % / HO-1 gene expression, Change % / MT-CO1 gene expression, Change % / MT-CYB gene expression, Change % / PGC-1a gene expression, Change %: S1 and S9 combined, vs control
Procedure: In the above 4.5 day experiment samples of peripheral leukocytes were collected from S1 and S9 in fasting condition (0 h), and also 1 hour (1 h) after taking 75 grams of glucose (Glutole, Biofile Pharma, 330 ml) for glucose tolerance test. Additional gene expression measurement was done from a separate 12 hour treatment for S1 and S9. In the 12 h test only two last doses of DGAcs were administered, first dose 12 h earlier than the blood sample, and the last/second dose 2.5 h earlier in the same morning (like in 4.5 day experiment). For the statin group, S10 and S11, only one gene expression measurement was done in two hours after the fasting blood sample. Leukocytes were immediately separated from blood samples, and after separation immediately lysed by stop solution and stored in freezer according to instructions by the service provider.
For S1 and S9 there were altogether 4 measurement points for gene expression, and only 3 repeats for each measurement. Results are presented in Table 6 below; changes of gene expressions compared to the control from peripheral leukocytes are presented. The Gene Expression analyses was conducted using TracTechnology by PlexPress Ltd in Helsinki. The TRAC data presented in Table 6 has been generated according to process instructions with quality tested instruments and reagents. PlexPress Quality Management System is set up according to the ISO 9001 standard. P-values are from t-distribution of a one sided test of deviation from control average, and are presented only when below 10%.

[2] = Extended 8 week administration and 2 week control period for S4 (Example 2.2); type: in vivo, human; settings: for AST/ALT / S-Bil / S-Uraat / fS-Fe / fS-Trigly: fasting blood
Procedure: For Subject 4 (S4) in Example 2.1, the 4 day test period was prolonged by 8 weeks with reduced, only once a day 5 mg/kg/day administration before going to bed. Additionally in order to have an understanding that the results in the 8 week test were due to the administration of the Innovation, an additional negative control measurement without DGAcs after 2 weeks and 2 days was made (+2 days due to alleviating doses see below). The idea was to see, if the beneficial effects seen in 4 day treatment prevailed in longer term (positive control).

[3] = rats, given with ethanol; cited from earlier work
[4] = 12 hour + 0 h test (two doses, fasting)
[5] = 12 hour + 1 h test (1 h after 75 g glucose)
[6] = 4.5 day + 1 h test (1 h after 75 g glucose)
[7] = S4, +2 weeks follow up after stopping DGAcs (negative control), change from previous observation (+8 weeks)
[8] = S4, +2 weeks follow up after stopping DGAcs (negative control)
[9] = S4, +8 weeks 5 mg/kg once a day (positive control), change from previous observation (4 day)
[10] = S4, +8 weeks 5 mg/kg once a day (positive control)

## O=C(O)[C@H](O)CO [DGA, D-glyceric acid]
400 m running experiment; S1 and S3, qualitative
  readiness to resume other physical exercise after 400 m run: much more ready to resume other physical exercise
400 m running experiment; S3, 4 day administration + 5 mg/kg before lunch
  400 m running times, control vs DGA: no significant differences
[1]; subject 4, 1×4 mg/kg/day for 3 weeks
  blood pressure: declined also somewhat
[1]; subject 5, clearly elevated blood pressure (102 or 104 before), twice a day for 10 days
  diastolic blood pressure after treatment: ~90
[1]; subject 5, clearly elevated blood pressure (roughly 180 before), twice a day for 10 days
  systolic blood pressure after treatment: ~160

## O.O.O=C([O-])[C@H](O)CO.O=C([O-])[C@H](O)CO.[Ca+2] [DGAcs, D-glyceric acid, calcium salt dehydrate]
Peripheral leukocytes; [4]
  AOX1 gene expression, Change %: −6%
  CYP1A2 gene expression, Change %: 100%
  CYP2B6 gene expression, Change %: −14%
  CYP2C9 gene expression, Change %: 8%
  CYP3A4 gene expression, Change %: −17%
  G6PD gene expression, Change %: 3%
  GPD2 gene expression, Change %: 24%
  GRHPR gene expression, Change %: −26%
  HO-1 gene expression, Change %: −31%
  MT-CO1 gene expression, Change %: −10%
  MT-CYB gene expression, Change %: −2%
  PGC-1a gene expression, Change %: −3%
Peripheral leukocytes; [5]
  AOX1 gene expression, Change %: 8%
  CYP2B6 gene expression, Change %: 8%
  CYP2C9 gene expression, Change %: 18%
  CYP3A4 gene expression, Change %: −45%
  G6PD gene expression, Change %: 18%
  GPD2 gene expression, Change %: 23%
  GRHPR gene expression, Change %: 6%
  HO-1 gene expression, Change %: −54%
  MT-CO1 gene expression, Change %: 4%
  MT-CYB gene expression, Change %: 2%
  PGC-1a gene expression, Change %: −21%
Peripheral leukocytes; 4.5 day + 0 h test (fasting)
  CYP1A2 gene expression, Change %: 62%
  CYP2B6 gene expression, Change %: 73%
  CYP2C9 gene expression, Change %: 0%
  CYP3A4 gene expression, Change %: 67%
  G6PD gene expression, Change %: 9%
  GPD2 gene expression, Change %: 31%
  GRHPR gene expression, Change %: 70%
  HO-1 gene expression, Change %: 82%
  MT-CO1 gene expression, Change %: 24%
  MT-CYB gene expression, Change %: 22%
Peripheral leukocytes; [6]
  CYP1A2 gene expression, Change %: 14%
  CYP2B6 gene expression, Change %: 147%
  CYP2C9 gene expression, Change %: 46%
  CYP3A4 gene expression, Change %: 69%
  G6PD gene expression, Change %: −13%
  GPD2 gene expression, Change %: 0%
  GRHPR gene expression, Change %: 100%
  HO-1 gene expression, Change %: 110%
  MT-CO1 gene expression, Change %: 23%
  MT-CYB gene expression, Change %: 21%
  PGC-1a gene expression, Change %: 30%
Peripheral leukocytes; S10, statin group
  CYP3A4 gene expression vs control: statistically significantly up regulated
Peripheral leukocytes; S10, statin group (halved dose of Simvastatin), 4.5 day
  increase in HO-1 gene expression: 160%
Peripheral leukocytes; S10, statin group, 4.5 day panel
  AOX1 gene expression increased by: 56%
[2]; [7]
  S-Asat, change: 24.1%
  S-Bil, change: 41.7%
  S-Uraat, change: 19.4%
  S-alat, change: −35.1%
  fS-Fe, change: −3.2%
  fS-Trigly, change: −17.8%
[2]; [8]
  AST/ALT: 1.44
  S-Bil: 10.2
  S-Uraat: 295
  fS-Fe: 15.1
  fS-Trigly: 1.11
[2]; [9]
  S-Asat, change: 31.8%
  S-Bil, change: −25.8%
  S-Uraat, change: 0.4%
  S-alat, change: 85.0%
  fS-Fe, change: −22.8%
  fS-Trigly, change: −22.0%
[2]; [10]
  AST/ALT: 0.78
  S-Bil: 7.2
  S-Uraat: 247
  fS-Fe: 15.6
  fS-Trigly: 1.35
[2]; S4, after 8 weeks of 5 mg/kg/day
  time without dose until withdrawal symptoms started: 36 h
[2]; S4, after 8 weeks of 5 mg/kg/day, bad feeling inside the head, dizziness, uneasiness
  withdrawal symptoms after stopping administration: very clear but not severe
[3]
  metabolism of alcohol: expedited the metabolism of alcohol
